Reference: patent US11187705B2, “Method for labeling specifically living microorganisms comprising the use of modified monosaccharide compounds” (CENTRE NATIONAL DE LA RECHERCHE SCIENTIFIQUE (CNRS), priority 2015, dated 2021)

Columns and labels:
Assay type in all cases: cell-based
[1] = system: Acanthamoebae castellanii; settings: for labeling (fluorescence, metabolic incorporation of the chemical reporter): 10 mM, 24 hours, ATCC 30234; for assimilation by the microorganism (in words): Acanthamoebae castellanii
[2] = system: Klebsiella pneumoniae (first entry); settings: 10 mM, 24 hours; first Klebsiella pneumoniae line (Table 1 order: CIP 101114)
[3] = system: Pseudomonas fluorescens Paris; settings: 10 mM, 24 hours; Laboratory strain
[4] = system: Staphylococcus aureus aureus; settings: for labeling (fluorescence, metabolic incorporation of the chemical reporter): 10 mM, 24 hours, IP 53-156; for assimilation by the microorganism (in words): Staphylococcus aureus aureus
Escherichia coli O86 = settings: 10 mM, 24 hours; Laboratory strain
Vibrio cholerae = settings: 10 mM, 24 hours; CIP 104151
Enterococcus faecalis = settings: for labeling (fluorescence, metabolic incorporation of the chemical reporter): 10 mM, 24 hours, Laboratory strain; for assimilation by the microorganism (in words): Enterococcus faecalis
Cronobacter sakazakii = settings: 10 mM, 24 hours; CIP 103183T
[5] = system: Legionella pneumophila sg1 Paris; settings: 10 mM, 24 hours; CIP 33152
Aspergillus niger = settings: for labeling (fluorescence, metabolic incorporation of the chemical reporter): 10 mM, 24 hours, Laboratory strain; for assimilation by the microorganism (in words): Aspergillus niger
Neisseria gonorrhoeae = settings: for labeling (fluorescence, metabolic incorporation of the chemical reporter): 10 mM, 24 hours, CIP 79.18T; for assimilation by the microorganism (in words): Neisseria gonorrhoeae
Neisseria meningitides = settings: 10 mM, 24 hours; CIP 107858
Providencia stuartii = settings: 10 mM, 24 hours; Clinical strain
Acinetobacter baumannii = settings: 10 mM, 24 hours; ATCC 17978
[6] = system: Serratia marcescens (second entry); settings: 10 mM, 24 hours; second Serratia marcescens line (Table 1 order: Clinical strain)
[7] = system: Klebsiella pneumoniae (second entry); settings: 10 mM, 24 hours; second Klebsiella pneumoniae line (Table 1 order: Clinical strain)
Bacillus subtilis = settings: for labeling (fluorescence, metabolic incorporation of the chemical reporter): 10 mM, 24 hours, Laboratory strain; for assimilation by the microorganism (in words): Bacillus subtilis
[8] = system: Listeria monocytogenes 1/2; settings: for labeling (fluorescence, metabolic incorporation of the chemical reporter): 10 mM, 24 hours, CIP 82.110pT; for assimilation by the microorganism (in words): Listeria monocytogenes
[9] = system: Legionella pneumophila sg6; settings: 10 mM, 24 hours; LG 0846 3022
[10] = system: Salmonella typhimurium 12023; settings: 10 mM, 24 hours; Laboratory strain
[11] = system: Stenotrophomonas maltophilia; settings: 10 mM, 24 hours; Clinical strain
Fusarium = settings: for labeling (fluorescence, metabolic incorporation of the chemical reporter): 10 mM, 24 hours, CNCM 1149-76; for assimilation by the microorganism (in words): Fusarium
[12] = system: Serratia marcescens (first entry); settings: 10 mM, 24 hours; first Serratia marcescens line (Table 1 order: CIP 102446)
Geotrichum candidum = settings: for labeling (fluorescence, metabolic incorporation of the chemical reporter): 10 mM, 24 hours, CNCM 1447-83; for assimilation by the microorganism (in words): Geotrichum candidum
Proteus mirabills = settings: 10 mM, 24 hours; Clinical strain
Micrococcus luteus = settings: for labeling (fluorescence, metabolic incorporation of the chemical reporter): 10 mM, 24 hours, Laboratory strain; for assimilation by the microorganism (in words): Micrococcus luteus
Candida albicans = settings: for labeling (fluorescence, metabolic incorporation of the chemical reporter): 10 mM, 24 hours, Laboratory strain; for assimilation by the microorganism (in words): Candida albicans
Escherichia coli K12 = settings: 10 mM, 24 hours; MG1655
Staphylococcus aureus = settings: for labeling (fluorescence, metabolic incorporation of the chemical reporter): 10 mM, 24 hours, Clinical strain; for assimilation by the microorganism (in words): Staphylococcus aureus
Staphylococcus epidermis = settings: for labeling (fluorescence, metabolic incorporation of the chemical reporter): 10 mM, 24 hours, Laboratory strain
Enterococcus durans = settings: 10 mM, 24 hours; Laboratory strain
[13] = system: Bacillus cereus (first entry); settings: 10 mM, 24 hours; first Bacillus cereus line (Table 1 order: Laboratory strain)
Streptococcus agalactiae = settings: 10 mM, 24 hours; Clinical strain
[14] = system: Bacillus cereus (second entry); settings: 10 mM, 24 hours; second Bacillus cereus line (Table 1 order: CIP 66.24T)
[15] = system: bacteria and Fungi as well as amoebas; test: Labeling of living microorganisms, overall statement on all tested strains; settings: broad range of bacteria and Fungi as well as amoebas
[16] = system: Staphylococcus saprophyticus; settings: 10 mM, 24 hours; Clinical strain
Bacillus cereus paris = settings: 10 mM, 24 hours; Laboratory strain

[N-]=[N+]=NC[C@@H](O)C1OC(O)(C(=O)O)CC(O)[C@H]1O (some centres unmarked) [Kdo-N3, reference compound]
+: labeling (fluorescence, metabolic incorporation of the chemical reporter) [2] | labeling (fluorescence, metabolic incorporation of the chemical reporter) [3] | labeling (fluorescence, metabolic incorporation of the chemical reporter) (Escherichia coli O86) | labeling (fluorescence, metabolic incorporation of the chemical reporter) (Vibrio cholerae) | labeling (fluorescence, metabolic incorporation of the chemical reporter) (Cronobacter sakazakii) | labeling (fluorescence, metabolic incorporation of the chemical reporter) [5] | labeling (fluorescence, metabolic incorporation of the chemical reporter) (Neisseria meningitides) | labeling (fluorescence, metabolic incorporation of the chemical reporter) (Providencia stuartii) | labeling (fluorescence, metabolic incorporation of the chemical reporter) (Acinetobacter baumannii) | labeling (fluorescence, metabolic incorporation of the chemical reporter) [6] | labeling (fluorescence, metabolic incorporation of the chemical reporter) [7] | labeling (fluorescence, metabolic incorporation of the chemical reporter) [9] | labeling (fluorescence, metabolic incorporation of the chemical reporter) [10] | labeling (fluorescence, metabolic incorporation of the chemical reporter) [11] | labeling (fluorescence, metabolic incorporation of the chemical reporter) [12] | labeling (fluorescence, metabolic incorporation of the chemical reporter) (Proteus mirabills) | labeling (fluorescence, metabolic incorporation of the chemical reporter) (Escherichia coli K12)
−: labeling (fluorescence, metabolic incorporation of the chemical reporter) [1] | labeling (fluorescence, metabolic incorporation of the chemical reporter) [4] | labeling (fluorescence, metabolic incorporation of the chemical reporter) (Enterococcus faecalis) | labeling (fluorescence, metabolic incorporation of the chemical reporter) (Aspergillus niger) | labeling (fluorescence, metabolic incorporation of the chemical reporter) (Neisseria gonorrhoeae) | labeling (fluorescence, metabolic incorporation of the chemical reporter) (Bacillus subtilis) | labeling (fluorescence, metabolic incorporation of the chemical reporter) [8] | labeling (fluorescence, metabolic incorporation of the chemical reporter) (Fusarium) | labeling (fluorescence, metabolic incorporation of the chemical reporter) (Geotrichum candidum) | labeling (fluorescence, metabolic incorporation of the chemical reporter) (Micrococcus luteus) | labeling (fluorescence, metabolic incorporation of the chemical reporter) (Candida albicans) | labeling (fluorescence, metabolic incorporation of the chemical reporter) (Staphylococcus aureus) | labeling (fluorescence, metabolic incorporation of the chemical reporter) (Staphylococcus epidermis)
did not assimilate: assimilation by the microorganism (in words) [1] | assimilation by the microorganism (in words) [4] | assimilation by the microorganism (in words) (Enterococcus faecalis) | assimilation by the microorganism (in words) (Aspergillus niger) | assimilation by the microorganism (in words) (Neisseria gonorrhoeae) | assimilation by the microorganism (in words) (Bacillus subtilis) | assimilation by the microorganism (in words) [8] | assimilation by the microorganism (in words) (Fusarium) | assimilation by the microorganism (in words) (Geotrichum candidum) | assimilation by the microorganism (in words) (Micrococcus luteus) | assimilation by the microorganism (in words) (Candida albicans) | assimilation by the microorganism (in words) (Staphylococcus aureus) | assimilation by the microorganism (in words) (Staphylococcus epidermis; Staphylococcus epidermis)

[N-]=[N+]=NC[C@H]1OC(O)[C@@H](O)[C@@H]1O (stereo partly drawn) [Ara-N3, 5-Azido-5-deoxy-D-arabinofuranose]
+: labeling (fluorescence, metabolic incorporation of the chemical reporter) [1] | labeling (fluorescence, metabolic incorporation of the chemical reporter) (Enterococcus durans) | labeling (fluorescence, metabolic incorporation of the chemical reporter) [13] | labeling (fluorescence, metabolic incorporation of the chemical reporter) (Streptococcus agalactiae) | labeling (fluorescence, metabolic incorporation of the chemical reporter) [2] | labeling (fluorescence, metabolic incorporation of the chemical reporter) [3] | labeling (fluorescence, metabolic incorporation of the chemical reporter) [4] | labeling (fluorescence, metabolic incorporation of the chemical reporter) (Escherichia coli O86) | labeling (fluorescence, metabolic incorporation of the chemical reporter) (Vibrio cholerae) | labeling (fluorescence, metabolic incorporation of the chemical reporter) (Enterococcus faecalis) | labeling (fluorescence, metabolic incorporation of the chemical reporter) (Cronobacter sakazakii) | labeling (fluorescence, metabolic incorporation of the chemical reporter) [5] | labeling (fluorescence, metabolic incorporation of the chemical reporter) (Aspergillus niger) | labeling (fluorescence, metabolic incorporation of the chemical reporter) [14] | labeling (fluorescence, metabolic incorporation of the chemical reporter) (Neisseria gonorrhoeae) | labeling (fluorescence, metabolic incorporation of the chemical reporter) (Neisseria meningitides) | labeling (fluorescence, metabolic incorporation of the chemical reporter) (Providencia stuartii) | labeling (fluorescence, metabolic incorporation of the chemical reporter) (Acinetobacter baumannii) | labeling (fluorescence, metabolic incorporation of the chemical reporter) [6] | labeling (fluorescence, metabolic incorporation of the chemical reporter) [7] | labeling (fluorescence, metabolic incorporation of the chemical reporter) (Bacillus subtilis) | labeling (fluorescence, metabolic incorporation of the chemical reporter) [8] | labeling (fluorescence, metabolic incorporation of the chemical reporter) [9] | labeling (fluorescence, metabolic incorporation of the chemical reporter) [10] | labeling (fluorescence, metabolic incorporation of the chemical reporter) [11] | labeling (fluorescence, metabolic incorporation of the chemical reporter) (Fusarium) | labeling (fluorescence, metabolic incorporation of the chemical reporter) [12] | labeling (fluorescence, metabolic incorporation of the chemical reporter) (Geotrichum candidum) | labeling (fluorescence, metabolic incorporation of the chemical reporter) [16] | labeling (fluorescence, metabolic incorporation of the chemical reporter) (Proteus mirabills) | labeling (fluorescence, metabolic incorporation of the chemical reporter) (Micrococcus luteus) | labeling (fluorescence, metabolic incorporation of the chemical reporter) (Candida albicans) | labeling (fluorescence, metabolic incorporation of the chemical reporter) (Bacillus cereus paris) | labeling (fluorescence, metabolic incorporation of the chemical reporter) (Escherichia coli K12) | labeling (fluorescence, metabolic incorporation of the chemical reporter) (Staphylococcus aureus) | labeling (fluorescence, metabolic incorporation of the chemical reporter) (Staphylococcus epidermis)
all tested microorganisms were labeled: labeling of all tested microorganisms (in words) [15]
assimilated: assimilation by the microorganism (in words) [1] | assimilation by the microorganism (in words) [4] | assimilation by the microorganism (in words) (Enterococcus faecalis) | assimilation by the microorganism (in words) (Aspergillus niger) | assimilation by the microorganism (in words) (Neisseria gonorrhoeae) | assimilation by the microorganism (in words) (Bacillus subtilis) | assimilation by the microorganism (in words) [8] | assimilation by the microorganism (in words) (Fusarium) | assimilation by the microorganism (in words) (Geotrichum candidum) | assimilation by the microorganism (in words) (Micrococcus luteus) | assimilation by the microorganism (in words) (Candida albicans) | assimilation by the microorganism (in words) (Staphylococcus aureus)
